Test results: PMC7053825 (European journal of medicinal chemistry, 2020)

Columns and labels:
HIV-1 NL4-3 virus = assay: In vitro anti-HIV assay in TZM-bl cells; type: cell-based
[1] = test system: NL4-3 Env pseudo-typed HIV-I virus; assay: ELISA-based quantification of capsid; type: cell-based, HIV-1; settings: 10 μM compound, compared to the DMSO control
in vitro = settings: human, microsomes
[2] = Human plasma stability assay; type: in vitro ADME
[3] = target: HIV-1NL4-3 capsid protein (CA hexamer); assay: SPR binding to CA hexamer; settings: hexamer versus monomer
HIV-1 CA = HIV-1 CA (Human immunodeficiency virus type 1 group M subtype B, UniProt P12493); assay: In vitro capsid assembly assay; type: biochemical; settings: capsid 30 μM, compound 50 μM, 3M NaCl, compared to DMSO control

## COc1ccc(N(C)C(=O)[C@H](Cc2ccccc2)NC(=O)Cn2cc(-c3ccccc3NC(=O)c3ccccc3OC)nn2)cc1 [6a-4, (S)-2-methoxy-N-(2-(1-(2-((1-((4-methoxyphenyl)(methyl)amino)-1-oxo-3-phenylpropan-2-yl)amino)-2-oxoethyl)-1H-1,2,3-triazol-4-yl)phenyl)benzamide]
HIV-1 NL4-3 virus; EC50 relative to 6a-2
  fold decrease in antiviral activity: 2.2 fold

## COc1ccc(N(C)C(=O)[C@H](Cc2ccccc2)NC(=O)Cn2cc(-c3ccccc3NC(=O)c3cccc(OC)c3)nn2)cc1 [6a-5, (S)-3-methoxy-N-(2-(1-(2-((1-((4-methoxyphenyl)(methyl)amino)-1-oxo-3-phenylpropan-2-yl)amino)-2-oxoethyl)-1H-1,2,3-triazol-4-yl)phenyl)benzamide]
HIV-1 NL4-3 virus; EC50 relative to 6a-2
  fold decrease in antiviral activity: 3.4 fold

## COc1ccc(C(=O)Nc2ccccc2-c2cn(CC(=O)N[C@@H](Cc3ccccc3)C(=O)N(C)c3ccc(OC)cc3)nn2)cc1 [6a-6, (S)-4-methoxy-N-(2-(1-(2-((1-((4-methoxyphenyl)(methyl)amino)-1-oxo-3-phenylpropan-2-yl)amino)-2-oxoethyl)-1H-1,2,3-triazol-4-yl)phenyl)benzamide]
HIV-1 NL4-3 virus; Human immunodeficiency virus 1, NL43, TZM-bl
  EC50: > 16.2 µM

## COc1ccc(N(C)C(=O)[C@H](Cc2ccccc2)NC(=O)Cn2cc(-c3ccccc3NC(=O)c3ccccc3F)nn2)cc1 [6a-9, (S)-2-fluoro-N-(2-(1-(2-((1-((4-methoxyphenyl)(methyl)amino)-1-oxo-3-phenylpropan-2-yl)amino)-2-oxoethyl)-1H-1,2,3-triazol-4-yl)phenyl)benzamide]
[1]
  reduction of p24 of the produced virus: about 15%
In vitro
  CLint scaled at 1 h: 1400 mL/min/kg
[2]
  remaining at 0 h: 100%
[3]
  difference in KD values for hexameric and monomeric CA: no significant differences

## COc1ccc(N(C)C(=O)[C@H](Cc2ccccc2)NC(=O)Cn2cc(-c3ccccc3NC(=O)c3cccc(F)c3)nn2)cc1 [6a-10, (S)-3-fluoro-N-(2-(1-(2-((1-((4-methoxyphenyl)(methyl)amino)-1-oxo-3-phenylpropan-2-yl)amino)-2-oxoethyl)-1H-1,2,3-triazol-4-yl)phenyl)benzamide]
[3]
  difference in KD values for hexameric and monomeric CA: no significant differences

## COc1ccc(N(C)C(=O)[C@H](Cc2ccccc2)NC(=O)Cn2cc(-c3cccc(NC(C)=O)c3)nn2)cc1 [6b-1, (S)-2-(2-(4-(3-acetamidophenyl)-1H-1,2,3-triazol-1-yl)acetamido)-N-(4-methoxyphenyl)-N-methyl-3-phenylpropanamide]
HIV-1 NL4-3 virus; EC50 relative to 5b
  fold decrease in antiviral activity: 4.5 fold

## COc1ccc(N(C)C(=O)[C@H](Cc2ccccc2)NC(=O)Cn2cc(-c3cccc(NC(=O)c4ccccc4)c3)nn2)cc1 [6b-2, (S)-N-(3-(1-(2-((1-((4-methoxyphenyl)(methyl)amino)-1-oxo-3-phenylpropan-2-yl)amino)-2-oxoethyl)-1H-1,2,3-triazol-4-yl)phenyl)benzamide]
HIV-1 NL4-3 virus; EC50 relative to 5b
  fold decrease in antiviral activity: 3.9 fold

## COc1ccc(N(C)C(=O)[C@H](Cc2ccccc2)NC(=O)Cn2cc(-c3cccc(NC(=O)c4cccc(F)c4)c3)nn2)cc1 [6b-10, (S)-3-fluoro-N-(3-(1-(2-((1-((4-methoxyphenyl)(methyl)amino)-1-oxo-3-phenylpropan-2-yl)amino)-2-oxoethyl)-1H-1,2,3-triazol-4-yl)phenyl)benzamide]
HIV-1 NL4-3 virus; EC50 with respect to 6b-2
  fold better active: 1.3 fold

## Cc1[nH]c2ccccc2c1CC(=O)N[C@@H](Cc1ccccc1)C(=O)N(C)c1ccccc1 [PF-74]
In vitro
  CLint scaled at 1 h: 2160 mL/min/kg
HIV-1 CA
  effect on in vitro assembly of HIV-1 CA: accelerated the assembly of HIV-1 CA

## CC(C)[N+](C)(CCOC(=O)C1c2ccccc2Oc2ccccc21)C(C)C [Propantheline bromide, reference compound]
[2]
  remaining at 0 h: 100%

## C[C@]12CC[C@H]3[C@@H](CCC4=CC(=O)CC[C@@]43C)[C@@H]1CC[C@@H]2O [Testosterone]
In vitro
  CLint scaled at 1 h: 169 mL/min/kg
HLM 0.5 mg protein/mL
  Remaining (T=60min): 3.6%
HLM, no cofactor (no NADPH regenerating system)
  Remaining (NCF=60min): 74.4%
